Results: patent US9326506B2, “Preparation method, agricultural composition and applications of natural brassinolide analogs” (CHENGDU NEWSUN CROPSCIENCE CO., LTD, priority 2012, dated 2016)

Test system: rice
Assay: Low temperature assay on rice seedlings
Type: in vivo
Experimental: According to a low temperature assay, we measured parameters including plant height, number of leaf, area of leaf, number of tiller, weight of root at low temperature to completely determine effects of the natural brassinolide analogues on the resistance to low temperature of a plant.
The natural brassinolide analogues, BR1, BR2, BR3, BR4, BR5 and BR6, used herein, were those prepared by the method of Example 1. Respectively the analogues were dissolved into 95% (V/V) ethanol solution, and then diluted with pure water to 1 mg/L, 0.1 mg/L, 0.01 mg/L, 0.001 mg/L and 0.0001 mg/L. In addition, pure water was used as a control.
After rice seeds were disinfected by using 5% sodium hypochlorite solution treatment, they were rinsed with distilled water until their pH>7, placed into a petri dish in a dark incubator, and cultured by using water at 30° C.±2° C. for 9 days. Then respectively the nine-day-old etiolated seedlings of rice were immersed in the above solutions containing different concentrations of the natural brassinolide analogues or pure water, and cultured at the temperature of 1° C., 2° C., 3° C., 4° C. and 5° C. for 24 hr. The parameters including plant height, area of leaf and weight of root after 3, 6, 9 and 12 days and number of leaf and number of tiller after 12 days were measured.

With `CC(C)[C@H](C)[C@@H](O)[C@H](O)[C@@H](C)[C@H]1CCC2C3CC(=O)C4C[C@H](O)CC[C@]4(C)C3CC[C@@]21C` (stereo partly drawn) [BR4] the Area of leaf (0.0001 mg/l, 1 °C, 3 days) was 9.8 cm^2, the Height (0.0001 mg/l, 1 °C, 3 days) was 6.8 cm and the Weight of root (0.0001 mg/l, 1 °C, 3 days) was 2.8 g. For the same molecule, the Area of leaf (0.0001 mg/l, 1 °C, 6 days) was 11 cm^2, the Height (0.0001 mg/l, 1 °C, 6 days) was 6.9 cm and the Weight of root (0.0001 mg/l, 1 °C, 6 days) was 3 g. For the same molecule, the Area of leaf (0.0001 mg/l, 1 °C, 9 days) was 12.2 cm^2, the Height (0.0001 mg/l, 1 °C, 9 days) was 7 cm and the Weight of root (0.0001 mg/l, 1 °C, 9 days) was 3.1 g. It also gave an Area of leaf (0.0001 mg/l, 1 °C, 12 days) of 13 cm^2, a Height (0.0001 mg/l, 1 °C, 12 days) of 7.2 cm and a Number of leaf (0.0001 mg/l, 1 °C, 12 days) of 3. The Number of tiller (0.0001 mg/l, 1 °C, 12 days) was 3, the Weight of root (0.0001 mg/l, 1 °C, 12 days) was 3.5 g and the Area of leaf (0.0001 mg/l, 2 °C, 3 days) was 10 cm^2. For the same molecule, the Height (0.0001 mg/l, 2 °C, 3 days) was 6.8 cm, the Weight of root (0.0001 mg/l, 2 °C, 3 days) was 2.8 g and the Area of leaf (0.0001 mg/l, 2 °C, 6 days) was 11.7 cm^2. For the same molecule, the Height (0.0001 mg/l, 2 °C, 6 days) was 7 cm, the Weight of root (0.0001 mg/l, 2 °C, 6 days) was 3.0 g and the Area of leaf (0.0001 mg/l, 2 °C, 9 days) was 12 cm^2. For the same molecule, the Height (0.0001 mg/l, 2 °C, 9 days) was 7.1 cm, the Weight of root (0.0001 mg/l, 2 °C, 9 days) was 3.2 g and the Area of leaf (0.0001 mg/l, 2 °C, 12 days) was 13 cm^2. The Height (0.0001 mg/l, 2 °C, 12 days) was 7.2 cm, the Number of leaf (0.0001 mg/l, 2 °C, 12 days) was 3 and the Number of tiller (0.0001 mg/l, 2 °C, 12 days) was 3. It also gave a Weight of root (0.0001 mg/l, 2 °C, 12 days) of 3.7 g, an Area of leaf (0.0001 mg/l, 3 °C, 3 days) of 10 cm^2 and a Height (0.0001 mg/l, 3 °C, 3 days) of 6.9 cm. For the same molecule, the Weight of root (0.0001 mg/l, 3 °C, 3 days) was 2.5 g, the Area of leaf (0.0001 mg/l, 3 °C, 6 days) was 11.8 cm^2 and the Height (0.0001 mg/l, 3 °C, 6 days) was 7.1 cm. The Weight of root (0.0001 mg/l, 3 °C, 6 days) was 2.6 g, the Area of leaf (0.0001 mg/l, 3 °C, 9 days) was 12.1 cm^2 and the Height (0.0001 mg/l, 3 °C, 9 days) was 7.4 cm. It also gave a Weight of root (0.0001 mg/l, 3 °C, 9 days) of 2.9 g, an Area of leaf (0.0001 mg/l, 3 °C, 12 days) of 13 cm^2 and a Height (0.0001 mg/l, 3 °C, 12 days) of 7.4 cm. For the same molecule, the Number of leaf (0.0001 mg/l, 3 °C, 12 days) was 3, the Number of tiller (0.0001 mg/l, 3 °C, 12 days) was 2 and the Weight of root (0.0001 mg/l, 3 °C, 12 days) was 2.9 g. For the same molecule, the Area of leaf (0.0001 mg/l, 4 °C, 3 days) was 10 cm^2, the Height (0.0001 mg/l, 4 °C, 3 days) was 6.9 cm and the Weight of root (0.0001 mg/l, 4 °C, 3 days) was 2.5 g. For the same molecule, the Area of leaf (0.0001 mg/l, 4 °C, 6 days) was 11.5 cm^2, the Height (0.0001 mg/l, 4 °C, 6 days) was 7.1 cm and the Weight of root (0.0001 mg/l, 4 °C, 6 days) was 2.6 g. It also gave an Area of leaf (0.0001 mg/l, 4 °C, 9 days) of 13 cm^2, a Height (0.0001 mg/l, 4 °C, 9 days) of 7.5 cm and a Weight of root (0.0001 mg/l, 4 °C, 9 days) of 2.9 g. The Area of leaf (0.0001 mg/l, 4 °C, 12 days) was 13.4 cm^2, the Height (0.0001 mg/l, 4 °C, 12 days) was 7.5 cm and the Number of leaf (0.0001 mg/l, 4 °C, 12 days) was 3. It also gave a Number of tiller (0.0001 mg/l, 4 °C, 12 days) of 2, a Weight of root (0.0001 mg/l, 4 °C, 12 days) of 2.9 g and an Area of leaf (0.0001 mg/l, 5 °C, 3 days) of 10.2 cm^2. For the same molecule, the Height (0.0001 mg/l, 5 °C, 3 days) was 7.0 cm, the Weight of root (0.0001 mg/l, 5 °C, 3 days) was 2.5 g and the Area of leaf (0.0001 mg/l, 5 °C, 6 days) was 12 cm^2. It also gave a Height (0.0001 mg/l, 5 °C, 6 days) of 7.3 cm, a Weight of root (0.0001 mg/l, 5 °C, 6 days) of 2.5 g and an Area of leaf (0.0001 mg/l, 5 °C, 9 days) of 13 cm^2. For the same molecule, the Height (0.0001 mg/l, 5 °C, 9 days) was 7.5 cm, the Weight of root (0.0001 mg/l, 5 °C, 9 days) was 2.9 g and the Area of leaf (0.0001 mg/l, 5 °C, 12 days) was 13.4 cm^2. It also gave a Height (0.0001 mg/l, 5 °C, 12 days) of 7.6 cm, a Number of leaf (0.0001 mg/l, 5 °C, 12 days) of 3 and a Number of tiller (0.0001 mg/l, 5 °C, 12 days) of 2. It also gave a Weight of root (0.0001 mg/l, 5 °C, 12 days) of 2.9 g, an Area of leaf (0.001 mg/l, 1 °C, 3 days) of 10 cm^2 and a Height (0.001 mg/l, 1 °C, 3 days) of 6.9 cm. It also gave a Weight of root (0.001 mg/l, 1 °C, 3 days) of 2.8 g, an Area of leaf (0.001 mg/l, 1 °C, 6 days) of 11.3 cm^2 and a Height (0.001 mg/l, 1 °C, 6 days) of 7 cm. It also gave a Weight of root (0.001 mg/l, 1 °C, 6 days) of 3.1 g, an Area of leaf (0.001 mg/l, 1 °C, 9 days) of 12.6 cm^2 and a Height (0.001 mg/l, 1 °C, 9 days) of 7.1 cm. The Weight of root (0.001 mg/l, 1 °C, 9 days) was 3.2 g, the Area of leaf (0.001 mg/l, 1 °C, 12 days) was 13.6 cm^2 and the Height (0.001 mg/l, 1 °C, 12 days) was 7.4 cm. The Number of leaf (0.001 mg/l, 1 °C, 12 days) was 3, the Number of tiller (0.001 mg/l, 1 °C, 12 days) was 3 and the Weight of root (0.001 mg/l, 1 °C, 12 days) was 3.7 g. The Area of leaf (0.001 mg/l, 2 °C, 3 days) was 9.8 cm^2, the Height (0.001 mg/l, 2 °C, 3 days) was 6.9 cm and the Weight of root (0.001 mg/l, 2 °C, 3 days) was 2.8 g.
